According to patent EP0231622B1, “Inhibition of the 5-lipoxygenase pathway” (priority 1985, dated 1987):

How the values were obtained:
5-LO = biological target: T1, 5-LO (Rattus norvegicus, UniProt P12527); assay: di-HETE production by RBL-1 high speed supernatant; assay type: biochemical; conditions: Table 9A; di-HETE production by RBL-1 high speed supernatant; read-out: 5-LO IC50
T1 construct: The activities of these enzymes in extracts of RBL-1 cells were assayed; host or cells: RBL-1 cells, disrupted by nitrogen cavitation; 10,000 x g or 100,000 x g supernatant
T1 sequence (P12527 1-673): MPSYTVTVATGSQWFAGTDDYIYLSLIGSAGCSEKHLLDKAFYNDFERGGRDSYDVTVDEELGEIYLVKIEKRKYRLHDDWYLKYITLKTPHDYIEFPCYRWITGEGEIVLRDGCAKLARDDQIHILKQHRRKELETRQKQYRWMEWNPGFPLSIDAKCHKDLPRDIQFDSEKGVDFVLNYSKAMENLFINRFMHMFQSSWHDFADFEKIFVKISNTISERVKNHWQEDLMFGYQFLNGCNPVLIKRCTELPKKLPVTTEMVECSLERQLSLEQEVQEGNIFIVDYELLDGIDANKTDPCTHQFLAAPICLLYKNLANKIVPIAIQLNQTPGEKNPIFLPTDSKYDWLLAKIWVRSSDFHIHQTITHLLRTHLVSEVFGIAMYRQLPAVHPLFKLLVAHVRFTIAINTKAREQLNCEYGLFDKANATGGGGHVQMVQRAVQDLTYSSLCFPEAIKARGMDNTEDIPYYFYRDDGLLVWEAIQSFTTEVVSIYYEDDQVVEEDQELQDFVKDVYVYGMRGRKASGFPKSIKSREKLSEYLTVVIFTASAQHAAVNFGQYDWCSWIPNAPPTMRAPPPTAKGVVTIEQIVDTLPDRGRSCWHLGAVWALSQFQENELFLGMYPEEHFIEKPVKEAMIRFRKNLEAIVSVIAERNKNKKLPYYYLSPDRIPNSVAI
Method: (§1) For in vitro experiments, compounds were dissolved at appropriate concentrations in ethanol or DMSO (dimethylsulfoxide) (final concentration <1.0%) and then diluted to final concentrations using the buffers indicated in the text.
(§2) The activities of these enzymes in extracts of RBL-1 cells were assayed using the method of Jakschik and Lee, Nature, 287, 51-52 (1980). RBL-1 cells were obtained from the American Type Culture Collection (#CRL 1378) and were grown at 37°C (5% CO₂ in air) in spinner culture in MEM supplemented with 10% heat inactivated fetal calf serum. Harvested cells were washed with 50 mM sodium phosphate buffer, pH 7.0, containing 1 mM EDTA and 0.1% gelatin, resuspended in fresh buffer (5 x 10⁷ cells/ml) and disrupted by nitrogen cavitation using the Parr bomb at 750 psi for 10 min. The broken cell extract was then centrifuged at 10,000 x g for 20 minutes and the supernatant centrifuged at 100,000 x g for 60 minutes. Aliquots (0.25 mls) of the supernatant were preincubated with or without drugs for 10 min, after which 10 ul CaCl₂ (50 mM) was added and the reaction was initiated with 2.5 ul of 2.5 mM arachidonic acid-1-¹⁴C (final concentration was […]; specific activity 20,000 dpm/nmole). After incubation for 3 min at 37°C, the reaction was terminated by addition of 2 volumes (0.5 ml) ice cold acetone and the sample was allowed to deproteinize on ice for 10 min prior to centrifugation at 1,000 x g for 10 min. The deproteinized supernatant was adjusted to pH 3.5 with 2N formic acid and extracted with 2 volumes of ice cold ethyl acetate. The extracted samples were dried under argon, redissolved in ethyl acetate and applied to Whatman LK5D thin layer chromatography (TLC) plates which were developed using the A-9 solvent system [organic phase of ethyl acetate: 2,2,5-trimethylpentane:acetic acid: water (110:50:20:10)] described by Hamberg and Samuelsson, J. Biol. Chem., 241, 257-263 (1966). Arachidonic acid, 5-HETE, di-HETE and PGD₂ were quantified with a Berthold LB 2832 autoscanner.
(§3) The 5-lipoxygenase and LTA₄ synthetase activities were further studied under the following conditions. An additional centrifugation of the RBL-1 supernatant was run at 100,000 x g for 60 min, to remove the particulate cyclooxygenase activity. Sample incubation was done under conditions similar to those described above, i.e., 2 mM CaCl₂ and 25 uM arachidonic acid-1-¹⁴C, however, with an incubation time of 5 min at […]. Under these conditions, only the 5-lipoxygenase pathway metabolites were detectable. The 5-HETE and di-HETEs were formed at a linear rate, and […] amounts of the arachidonic acid-1-¹⁴C substrate were utilized.

5-Lipoxygenase = biological target: T2, 5-Lipoxygenase (Rattus norvegicus, UniProt P12527); assay: 5-HETE production by RBL-1 high speed supernatant; assay type: biochemical; conditions: for IC50: Table 8A, RBL-1 high speed supernatant
T2 construct: The activities of these enzymes in extracts of RBL-1 cells were assayed; host or cells: RBL-1 cells, disrupted by nitrogen cavitation; 10,000 x g or 100,000 x g supernatant
T2 sequence (P12527 1-673): T1 sequence (P12527 1-673)
Method: as §1, §2, §3

SMILES	IC50 (5-LO) [µM]	IC50 (5-Lipoxygenase) [µM]	inhibition at 10 µM (5-Lipoxygenase; read-out: % inhibition at 10 μM, 10 μM, 5-HETE production, footnotes of Table 8A) [%]
O=S1(=O)CCn2c1nc(-c1ccc(F)cc1)c2-c1ccncc1 [Compound 29, 6-(4-fluorophenyl)-5-(4-pyridyl)-2,3-dihydroimidazo[2,1b]thiazole-1,1-dioxide]	> 100	100	–
N#Cc1ccc(-c2nc3n(c2-c2ccc(C#N)cc2)CCS3)cc1 [Compound 13, 5,6-bis(4-cyanophenyl)-2,3-dihydroimidazo[2,1-b]thiazole]	15	16	–
COc1ccc(-c2nc3n(c2-c2ccc(F)cc2)CCS3)cc1 [Compound 14]	0.6	2	–
O=S1(=O)CCn2c1nc(-c1ccc(F)cc1)c2-c1ccc(F)cc1 [Compound 31]	< 33	33	–
Fc1ccc(-c2nc3n(c2-c2ccccn2)CCS3)cc1 [Compound 23, 5-(2-pyridinyl)-6-(4-fluorophenyl)-2,3-dihydroimidazo[2,1-b]thiazole]	42	90	–
CSc1ccc(-c2nc3n(c2-c2ccc(SC)cc2)CCS3)cc1 [Compound 32]	> 100	> 10	35 to 40
[O-][S+]1CCn2c1nc(-c1ccc(F)cc1)c2-c1ccc(F)cc1 (centres unmarked) [Compound 30]	60	70	–
Fc1ccc(-c2c(-c3ccncc3)nc3n2CCS3)cc1 [Compound 12]	17	16	–
CN(C)c1ccc(-c2nc3n(c2-c2ccc(F)cc2)CCS3)cc1 [Compound 6, 6-(4-N,N-dimethylaminophenyl)-5-(4-fluorophenyl)-2,3-dihydroimidazo[2,1-b]thiazole]	0.6	0.8	–
COc1ccc(-c2nc3n(c2-c2ccc(OC)cc2)CCS3(=O)=O)cc1 [Compound 43]	10	10	–
COc1ccc(-c2nc3n(c2-c2ccncc2)CCS3)cc1 [Compound 18]	1.9	5.4	–
COc1ccc(-c2nc3n(c2-c2ccc(OC)cc2)CCCS3)cc1 [Compound 20]	5.6	5.6	–
Nc1ccc(-c2nc3n(c2-c2ccc(N)cc2)CCS3)cc1 [Compound 45, 5,6-bis(4-aminophenyl)-2,3-dihydroimidazo[2,1-b]thiazole]	6	8	–

Continued by falling IC50 (5-Lipoxygenase), values first:

IC50 (5-LO) [µM]	IC50 (5-Lipoxygenase) [µM]	inhibition at 10 µM (5-Lipoxygenase; read-out: % inhibition at 10 μM, 10 μM, 5-HETE production, footnotes of Table 8A) [%]	SMILES
33	110	–	c1cc(-c2nc3n(c2-c2ccncc2)CCS3)ccn1 [Compound 11, 5,6-Bis(4-pyridyl)-2,3-dihydroimidazo(2,1-b)thiazole]
20	37	–	Fc1ccc(-c2c(-c3ccccn3)nc3n2CCS3)cc1 [Compound 24, 5-(4-fluorophenyl)-6-(2-pyridinyl)-2,3-dihydroimidazo[2,1-b]thiazole]
8	12	–	Fc1ccc(-c2nc3n(c2-c2ccc(F)cc2)CCC3)cc1 [Compound 8, 2,3-Bis(4-fluorophenyl)-6,7-dihydro-5H-pyrrolo[1,2-a]imidazole]
10	10	–	c1cc(-c2c(-c3ccc4c(c3)OCO4)nc3n2CCS3)ccn1 [Compound 5, 5-(4-pyridyl)-6-(3,4-methylenedioxyphenyl)-2,3-dihydroimidazo[2,1-b]thiazole]
5	8.6	–	Fc1ccc(-c2nc3n(c2-c2ccc(F)cc2)CCS3)cc1 [Compound 19]
–	4	–	COc1ccc(-c2nc3n(c2-c2ccc(OC)cc2)CCC3)cc1 [Compound 22]
2.8	3.9	–	COc1ccc(-c2nc3n(c2-c2ccc(OC)cc2)CCS3)cc1 [Compound 21]
0.1	0.23	–	c1cc(N2CCCC2)ccc1-c1nc2n(c1-c1ccc(N3CCCC3)cc1)CCS2 [Compound 3, 5,6-bis(4-(1-pyrrolidinyl)phenyl)-2,3-dihydroimidazo[2,1-b] thiazole]
0.1	0.1	–	CCNc1ccc(-c2nc3n(c2-c2ccc(NCC)cc2)CCS3)cc1 [Compound 17]
